The test relates to Human WB (90%) CD69. The test is described as follows: Human WB (90%) CD69. It counts as cell-based. The note with it: read-out: Human WB (90%) CD69 IC50 (nM); human whole blood (90%), CD69 readout.

Structures can show the parent of a compound that is named as a salt.

What is called IC50 is the concentration that gives 50% inhibition. With `COc1ccc(-c2nc3c(N4CCN(C5COC5)CC4)cc(-c4ccc(N5CCN(C(C)C)CC5)cc4)cc3n2C)cc1OC` [Example 59, 2-(3,4-dimethoxyphenyl)-6-(4-(4-isopropylpiperazin-1-yl)phenyl)-1-methyl-4-(4-(oxetan-3-yl)piperazin-1-yl)-1H-benzo[d]imidazole], the IC50 worked out at 651 nM.
For `Cc1nc2c(N3CCC(CNC4COC4)CC3)cc(-c3ccc(N4CCN(C(C)C)CC4)cc3)cc2n1C` [Example 60, N-((1-(6-(4-(4-isopropylpiperazin-1-yl)phenyl)-1,2-dimethyl-1H-benzo[d]imidazol-4-yl)piperidin-4-yl)methyl)oxetan-3-amine], the half-inhibitory concentration (IC50) was found to be 535 nM.
In the case of `Cc1nc2c(N3CCC(CNC4CCOCC4)CC3)cc(-c3ccc(N4CCN(C(C)C)CC4)cc3)cc2n1C` [Example 61, N-((1-(6-(4-(4-isopropylpiperazin-1-yl)phenyl)-1,2-dimethyl-1H-benzo[d]imidazol-4-yl)piperidin-4-yl)methyl)tetrahydro-2H-pyran-4-amine], the IC50 worked out at 156 nM.
On to `CC(C)N1CCN(c2ccc(-c3cc(NC4CCN(C5COC5)CC4)c4nc(-c5ccc(S(C)(=O)=O)cc5)n(C)c4c3)cc2)CC1` [Example 62, 6-(4-(4-isopropylpiperazin-1-yl)phenyl)-1-methyl-2-(4-(methylsulfonyl)phenyl)-N-(1-(oxetan-3-yl)piperidin-4-yl)-1H-benzo[d]imidazol-4-amine, 2 TFA], for which the IC50 is 111 nM.
For `CC(C)N1CCN(c2ccc(-c3cc(NCCN4CCOCC4)c4nc(-c5ccc(S(C)(=O)=O)cc5)n(C)c4c3)cc2)CC1` [Example 63, 6-(4-(4-isopropylpiperazin-1-yl)phenyl)-1-methyl-2-(4-(methylsulfonyl)phenyl)-N-(2-morpholinoethyl)-1H-benzo[d]imidazol-4-amine], the half-inhibitory concentration (IC50) is 121 nM.

The record behind these values is patent publication US20260224584A1 (priority 2023, published 2026).
